Values after ≈ are worked out from the molar mass of the structure shown.
Tests used:
ECE-1 = target: T1, ECE-1 (Homo sapiens, UniProt P42892); assay: Off-target screen ECE-1; type: biochemical; conditions: 10 µM; single point, duplicates
T1 construct: purchased Eurofins CEREP SA

kappa opioid receptor = target: T2, kappa opioid receptor (Rattus norvegicus, UniProt P34975); assay: Off-target screen kappa opioid receptor; type: binding; conditions: 10 µM; single point, duplicates
T2 construct: purchased Eurofins CEREP SA

ADAM 17 = target: T3, ADAM 17 (Homo sapiens, UniProt P78536); assay: Off-target screen ADAM 17; type: biochemical; conditions: 10 µM; single point, duplicates
T3 construct: purchased Eurofins CEREP SA

Muscarininc receptor M4 = target: T4, Muscarininc receptor M4 (Homo sapiens, UniProt P08173); assay: Off-target screen Muscarinic M4; type: binding; conditions: 10 µM; single point, duplicates
T4 construct: purchased Eurofins CEREP SA

LPA2 receptor = target: T5, LPA2 receptor (Homo sapiens, UniProt Q9HBW0); assay: Off-target screen LPA2 receptor, agonist mode; type: cell-based; conditions: 10 µM, single point, duplicates
T5 construct: purchased Eurofins CEREP SA

Xanthine oxidase = target: T6, Xanthine oxidase (Bos taurus, UniProt P80457); assay: Off-target screen Xanthine oxidase; type: biochemical, b; conditions: 10 µM; single point, duplicates
T6 construct: purchased Eurofins CEREP SA

MMP-1 = target: T7, MMP-1 (Homo sapiens, UniProt P03956); assay: Off-target screen MMP-1; type: biochemical; conditions: 10 µM; single point, duplicates
T7 construct: purchased Eurofins CEREP SA

Sodium channel (site 2) = assay: Off-target screen Sodium channel (site 2); conditions: 10 µM; single point, duplicates
[1] = target: T8, Neprilysin (neutral endopeptidase) (Homo sapiens, UniProt P08473); assay: Off-target screen Neprilysin; type: biochemical; conditions: 10 µM; single point, duplicates
T8 construct: purchased Eurofins CEREP SA

Muscarinic receptor M2 = target: T9, Muscarinic receptor M2 (Homo sapiens, UniProt P08172); assay: Off-target screen Muscarinic M2; type: binding; conditions: 10 µM; single point, duplicates
T9 construct: purchased Eurofins CEREP SA

Alpha2A-adrenoreceptor = target: T10, Alpha2A-adrenoreceptor (Homo sapiens, UniProt P08913); assay: Off-target screen Alpha2A-adrenoreceptor; type: binding; conditions: 10 µM; single point, duplicates
T10 construct: purchased Eurofins CEREP SA

Glucocorticoid receptor = target: T11, Glucocorticoid receptor (Homo sapiens, UniProt P04150); assay: Off-target screen Glucocorticoid receptor; type: binding; conditions: 10 µM; single point, duplicates
T11 construct: purchased Eurofins CEREP SA

Adenosine A3 respetor = target: T12, Adenosine A3 respetor (Homo sapiens, UniProt P0DMS8); assay: Off-target screen Adenosine A3; type: binding; conditions: 10 µM; single point, duplicates
T12 construct: purchased Eurofins CEREP SA

PCP receptor = assay: Off-target screen PCP receptor; conditions: 10 µM; single point, duplicates
[2] = In vitro microsomal stability, rat; type: in vitro ADME; conditions: rat microsomes, 1 µM; value of 10 = low clearance, essentially below detection limit
Protocol: Incubations of a test compound at a concentration of 1 µM with microsomes (0.5 mg/ml) from the appropriate species (human, mouse, or rat) plus cofactor NADPH were performed in 96-well plates at 37°C on a TECAN automated liquid handling system (Tecan Group Ltd., Männedorf, Switzerland). After pre-incubation of the test compound with the microsomes for 10 min, the enzymatic reaction was started by the addition of cofactors. Aliquots of the incubations are removed at 1, 3, 6, 9, 15, 25, 35, and 45 min and are then quenched with 1:3 (v/v) acetonitrile containing internal standards. Samples were then cooled and centrifuged before analysis of the supernatant by LC-MS/MS. Logarithmic Peak area ratios (test compound peak area/internal standard peak area) were plotted against incubation time and a linear fit made to the data with emphasis upon the initial rate of compound disappearance. The slope of the fit was then used to calculate the intrinsic clearance: Clint (µL/min/mg protein) = −slope (min-1) * 1,000/[protein concentration (mg/ml)].

GSK-3A = target: T13, GSK-3A (Homo sapiens, UniProt P49840); assay: Off-target screen GSK-3A; type: biochemical; conditions: 10 µM; single point, duplicates
T13 construct: purchased Eurofins CEREP SA

Estrogen receptor alpha = target: T14, Estrogen receptor alpha (Homo sapiens, UniProt P03372); assay: Off-target screen Estrogen receptor alpha; type: binding; conditions: 10 µM; single point, duplicates
T14 construct: purchased Eurofins CEREP SA

Single dose PK in rats = type: in vivo; conditions: rat
Protocol: Exposures in animals treated with ATX-inhibitors were determined from K2EDTA treated plasma by LC-MS/MS at different time points. 25 µL of plasma was used for a single concentration determination. Concentration/time profiles were analyzed with MS Excel (Microsoft Corporation, Redmond, WA, United States).
For PK experiments for 7, 13, 14, and 15, respectively, animals were treated either iv or po and exposures were determined at different time points after compound administration. Suitable formulations for 13 were, for example, NMP:Tris buffer pH 8.5 (30%/70%) for iv administration with a nominal drug concentration of 1 mg/ml (dose 2 mg/kg) and a suspension in NMP:gelatine/NaCl (10%/90%) for po administration with a nominal drug concentration of 2.5 mg/ml (dose 10 mg/kg). PK parameters in Table 2 were estimated from the concentration time profiles using Phoenix WinNonlin software (Certara, Princeton, NJ, United States).

HT-solubility assay = type: physicochemical; conditions: aqueous buffer, thermodynamic from solid; phosphate buffer pH 6.5
Protocol: This assay was performed on a TECAN station starting from 10 mM DMSO stock solutions of the test compounds. Two aliquots of the test compound were dried and dissolved in phosphate buffer at pH 6.5. Sonication supports optimal re-solubilization. The solutions were then filtered and diluted (3 different dilution levels for each compound) followed by quantification of the dissolved material with Rapid-Fire MS. Quantification was performed for each test compound with a 6-point calibration curve prepared with the same DMSO starting solution.

MMP-3 = target: T15, MMP-3 (Homo sapiens, UniProt P08254); assay: Off-target screen MMP-3; type: biochemical; conditions: 10 µM; single point, duplicates
T15 construct: purchased Eurofins CEREP SA

Prostaglandin F receptor = target: T16, Prostaglandin F receptor (Homo sapiens, UniProt P43088); assay: Off-target screen Prostaglandin F receptor; type: binding; conditions: 10 µM; single point, duplicates
T16 construct: purchased Eurofins CEREP SA

[3] = tested on: Ca2^+ channel (diltiazem site); assay: Off-target screen Ca2+ channel (diltiazem site); conditions: 10 µM; single point, duplicates
[4] = target: T17, Angiotensin II receptor 1 (Homo sapiens, UniProt P30556); assay: Off-target screen Angiotensin II receptor 1; type: binding; conditions: 10 µM; single point, duplicates
T17 construct: purchased Eurofins CEREP SA

Histamine H3 receptor = target: T18, Histamine H3 receptor (Homo sapiens, UniProt Q9Y5N1); assay: Off-target screen Histamine H3; type: binding; conditions: 10 µM; single point, duplicates
T18 construct: purchased Eurofins CEREP SA

[5] = plasma, po, 20 mg/kg/day, food admix (FA), 20 mg/kg per day

T10 sequence (P08913 whole entry): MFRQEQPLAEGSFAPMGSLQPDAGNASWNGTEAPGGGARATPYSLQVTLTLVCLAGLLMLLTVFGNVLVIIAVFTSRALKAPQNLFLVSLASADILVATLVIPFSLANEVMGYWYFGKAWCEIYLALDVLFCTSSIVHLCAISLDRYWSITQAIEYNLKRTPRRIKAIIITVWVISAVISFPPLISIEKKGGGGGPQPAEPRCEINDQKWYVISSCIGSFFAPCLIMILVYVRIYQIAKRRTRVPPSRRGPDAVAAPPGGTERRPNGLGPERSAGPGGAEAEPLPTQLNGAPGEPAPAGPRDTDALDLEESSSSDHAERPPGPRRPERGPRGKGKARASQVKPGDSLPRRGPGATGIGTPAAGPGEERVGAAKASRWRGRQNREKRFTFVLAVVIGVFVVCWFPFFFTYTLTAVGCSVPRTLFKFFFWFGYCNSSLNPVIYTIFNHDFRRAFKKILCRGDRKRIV
T18 sequence (Q9Y5N1 whole entry): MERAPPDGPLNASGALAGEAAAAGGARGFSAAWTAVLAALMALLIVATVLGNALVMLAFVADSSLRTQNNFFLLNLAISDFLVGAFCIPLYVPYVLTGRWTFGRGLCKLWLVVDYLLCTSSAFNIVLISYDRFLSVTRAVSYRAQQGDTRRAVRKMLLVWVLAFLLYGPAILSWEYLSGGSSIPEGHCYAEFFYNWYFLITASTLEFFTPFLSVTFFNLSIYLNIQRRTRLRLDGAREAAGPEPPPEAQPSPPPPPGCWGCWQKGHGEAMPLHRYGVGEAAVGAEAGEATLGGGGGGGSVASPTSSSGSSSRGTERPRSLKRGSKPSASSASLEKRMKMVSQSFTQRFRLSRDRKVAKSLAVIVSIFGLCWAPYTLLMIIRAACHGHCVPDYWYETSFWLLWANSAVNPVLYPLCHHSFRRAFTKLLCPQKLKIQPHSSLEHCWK
T12 sequence (P0DMS8 whole entry): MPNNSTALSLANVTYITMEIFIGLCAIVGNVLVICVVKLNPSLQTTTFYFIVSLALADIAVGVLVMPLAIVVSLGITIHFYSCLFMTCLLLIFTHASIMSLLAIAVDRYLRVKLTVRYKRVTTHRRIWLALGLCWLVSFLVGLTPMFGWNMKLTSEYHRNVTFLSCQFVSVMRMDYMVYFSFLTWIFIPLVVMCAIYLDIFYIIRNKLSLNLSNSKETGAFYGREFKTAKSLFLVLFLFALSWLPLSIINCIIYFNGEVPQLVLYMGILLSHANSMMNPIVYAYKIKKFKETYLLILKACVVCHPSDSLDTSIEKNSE
T14 sequence (P03372 whole entry): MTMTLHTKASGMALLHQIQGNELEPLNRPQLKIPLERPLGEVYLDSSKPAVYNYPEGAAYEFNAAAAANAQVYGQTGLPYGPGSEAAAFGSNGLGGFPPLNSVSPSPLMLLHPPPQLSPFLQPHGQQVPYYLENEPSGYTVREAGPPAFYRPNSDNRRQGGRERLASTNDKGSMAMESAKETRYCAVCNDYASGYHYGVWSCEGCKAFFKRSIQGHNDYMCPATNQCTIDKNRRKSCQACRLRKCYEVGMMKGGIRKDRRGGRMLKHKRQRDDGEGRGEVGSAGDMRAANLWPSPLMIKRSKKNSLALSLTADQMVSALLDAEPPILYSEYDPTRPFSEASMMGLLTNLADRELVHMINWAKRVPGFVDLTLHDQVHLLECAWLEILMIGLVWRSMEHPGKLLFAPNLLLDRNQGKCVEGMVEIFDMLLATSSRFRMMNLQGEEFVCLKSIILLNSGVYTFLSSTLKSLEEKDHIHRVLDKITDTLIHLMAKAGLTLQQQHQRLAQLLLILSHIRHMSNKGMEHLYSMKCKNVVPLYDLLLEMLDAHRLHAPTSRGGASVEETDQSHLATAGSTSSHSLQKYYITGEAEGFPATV
T2 sequence (P34975 whole entry): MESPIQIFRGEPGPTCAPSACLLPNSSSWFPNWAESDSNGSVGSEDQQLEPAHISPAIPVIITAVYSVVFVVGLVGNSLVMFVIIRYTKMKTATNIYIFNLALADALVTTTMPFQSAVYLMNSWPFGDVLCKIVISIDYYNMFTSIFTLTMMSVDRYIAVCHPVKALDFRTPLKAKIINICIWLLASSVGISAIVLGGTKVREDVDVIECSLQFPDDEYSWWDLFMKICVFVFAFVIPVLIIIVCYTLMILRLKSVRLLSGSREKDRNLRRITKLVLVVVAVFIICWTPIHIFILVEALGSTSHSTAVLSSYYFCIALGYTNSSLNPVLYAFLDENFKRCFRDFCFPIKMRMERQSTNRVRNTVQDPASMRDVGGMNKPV
T1 sequence (P42892 whole entry): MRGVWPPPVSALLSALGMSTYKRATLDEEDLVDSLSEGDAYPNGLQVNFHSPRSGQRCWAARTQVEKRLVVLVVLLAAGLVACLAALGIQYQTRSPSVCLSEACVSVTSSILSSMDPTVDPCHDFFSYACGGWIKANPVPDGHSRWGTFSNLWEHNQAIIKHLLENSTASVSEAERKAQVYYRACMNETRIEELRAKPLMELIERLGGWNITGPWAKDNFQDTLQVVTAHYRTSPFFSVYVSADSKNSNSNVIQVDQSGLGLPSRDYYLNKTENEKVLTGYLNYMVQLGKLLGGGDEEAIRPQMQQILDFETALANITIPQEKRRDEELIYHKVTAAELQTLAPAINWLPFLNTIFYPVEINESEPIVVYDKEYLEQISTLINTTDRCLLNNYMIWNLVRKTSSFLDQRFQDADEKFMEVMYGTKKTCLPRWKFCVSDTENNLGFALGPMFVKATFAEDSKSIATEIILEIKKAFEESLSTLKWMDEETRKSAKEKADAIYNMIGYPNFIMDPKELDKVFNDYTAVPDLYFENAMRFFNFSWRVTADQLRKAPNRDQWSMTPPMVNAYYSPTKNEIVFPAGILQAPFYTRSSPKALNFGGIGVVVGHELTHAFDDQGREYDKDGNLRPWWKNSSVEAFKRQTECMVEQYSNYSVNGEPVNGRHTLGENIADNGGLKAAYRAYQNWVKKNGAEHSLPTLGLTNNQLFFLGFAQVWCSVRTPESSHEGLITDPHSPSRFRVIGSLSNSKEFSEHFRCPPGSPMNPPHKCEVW
T3 sequence (P78536 215-824): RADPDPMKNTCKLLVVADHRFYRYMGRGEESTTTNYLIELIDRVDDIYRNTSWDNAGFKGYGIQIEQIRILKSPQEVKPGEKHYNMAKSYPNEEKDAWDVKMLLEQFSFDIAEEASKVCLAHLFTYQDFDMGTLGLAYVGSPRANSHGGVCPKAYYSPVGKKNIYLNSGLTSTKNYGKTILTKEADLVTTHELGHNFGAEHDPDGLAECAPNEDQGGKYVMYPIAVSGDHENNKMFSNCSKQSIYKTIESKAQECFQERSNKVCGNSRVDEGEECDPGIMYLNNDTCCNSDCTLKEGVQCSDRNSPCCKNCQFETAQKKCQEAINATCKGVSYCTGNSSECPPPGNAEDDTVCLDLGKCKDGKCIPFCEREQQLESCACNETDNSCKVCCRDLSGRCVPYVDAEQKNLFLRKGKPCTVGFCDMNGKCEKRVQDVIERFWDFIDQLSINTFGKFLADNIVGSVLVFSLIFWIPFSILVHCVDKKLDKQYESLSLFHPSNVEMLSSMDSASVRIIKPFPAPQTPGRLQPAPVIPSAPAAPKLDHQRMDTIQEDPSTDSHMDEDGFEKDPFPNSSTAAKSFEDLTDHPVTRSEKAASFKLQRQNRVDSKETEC
T13 sequence (P49840 whole entry): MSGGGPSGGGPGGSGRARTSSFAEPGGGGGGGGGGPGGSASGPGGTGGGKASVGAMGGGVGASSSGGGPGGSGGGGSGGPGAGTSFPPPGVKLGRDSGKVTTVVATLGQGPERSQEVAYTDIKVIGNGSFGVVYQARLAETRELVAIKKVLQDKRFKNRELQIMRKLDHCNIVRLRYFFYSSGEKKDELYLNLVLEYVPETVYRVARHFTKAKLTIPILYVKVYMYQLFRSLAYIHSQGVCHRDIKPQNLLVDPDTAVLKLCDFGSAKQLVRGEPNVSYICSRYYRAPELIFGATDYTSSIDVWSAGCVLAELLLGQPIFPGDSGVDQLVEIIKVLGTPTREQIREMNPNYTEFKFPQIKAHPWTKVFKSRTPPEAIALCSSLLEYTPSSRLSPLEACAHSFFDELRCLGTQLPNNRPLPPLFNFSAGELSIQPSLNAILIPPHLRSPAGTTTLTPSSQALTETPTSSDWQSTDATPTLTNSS
T17 sequence (P30556 whole entry): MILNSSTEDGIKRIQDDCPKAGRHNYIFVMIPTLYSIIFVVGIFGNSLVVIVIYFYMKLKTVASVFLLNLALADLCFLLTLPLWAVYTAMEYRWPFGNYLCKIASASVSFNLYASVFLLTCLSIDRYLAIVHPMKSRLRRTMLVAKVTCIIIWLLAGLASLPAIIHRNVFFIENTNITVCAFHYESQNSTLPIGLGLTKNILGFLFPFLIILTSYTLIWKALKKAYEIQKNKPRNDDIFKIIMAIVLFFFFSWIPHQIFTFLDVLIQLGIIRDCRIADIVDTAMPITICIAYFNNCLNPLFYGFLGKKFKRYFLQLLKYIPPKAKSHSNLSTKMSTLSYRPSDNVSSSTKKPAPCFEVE
T9 sequence (P08172 whole entry): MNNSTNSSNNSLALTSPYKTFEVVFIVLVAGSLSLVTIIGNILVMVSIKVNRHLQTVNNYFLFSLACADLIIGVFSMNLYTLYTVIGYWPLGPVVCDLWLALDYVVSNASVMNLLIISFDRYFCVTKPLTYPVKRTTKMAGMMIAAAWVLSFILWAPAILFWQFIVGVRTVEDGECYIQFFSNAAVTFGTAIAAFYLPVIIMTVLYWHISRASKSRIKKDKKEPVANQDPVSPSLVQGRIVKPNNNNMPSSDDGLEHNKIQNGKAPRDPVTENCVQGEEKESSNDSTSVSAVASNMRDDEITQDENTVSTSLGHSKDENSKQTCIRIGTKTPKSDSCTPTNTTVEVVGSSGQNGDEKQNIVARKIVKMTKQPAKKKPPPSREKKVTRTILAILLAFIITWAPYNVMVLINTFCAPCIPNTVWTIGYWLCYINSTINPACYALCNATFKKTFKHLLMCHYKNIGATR

## O=C(OCc1ccc(OC(F)(F)F)cc1)N1C[C@@H]2CN(C(=O)c3ccc4[nH]nnc4c3)C[C@H]2C1 [Compound 13, (3aS,6aS)-5-(1H-Benzotriazole-5-carbonyl)-hexahydro-pyrrolo[3,4-c]pyrrole-2-carboxylic acid 4-trifluoromethoxy-benzyl ester]
ECE-1
  ECE-1 (h) [% inhib]: 16 % inhib
Kappa opioid receptor
  kappa opioid receptor (r) [% inhib]: -1 % inhib
ADAM 17
  ADAM 17 (h) [% inhib]: 9 % inhib
Muscarininc receptor M4
  Muscarininc receptor M4 (h) [% inhib]: -17 % inhib
LPA2 receptor
  LPA2 receptor (h), agonist mode [% pos ctrl]: 8 % pos ctrl
Xanthine oxidase
  Xanthine oxidase (b) [% inhib]: 7 % inhib
MMP-1
  MMP-1 (h) [% inhib]: -9 % inhib
Sodium channel (site 2)
  Sodium channel (site 2) (r) [% inhib]: 49 % inhib
[1]
  Neprilysin (neutral endopeptidase) (h) [% inhib]: -29 % inhib
Muscarinic receptor M2
  Muscarinic receptor M2 (h) [% inhib]: -15 % inhib
Alpha2A-adrenoreceptor
  Alpha2A-adrenoreceptor (h) [% inhib]: 3 % inhib
Glucocorticoid receptor
  Glucocorticoid receptor (h) [% inhib]: 6 % inhib
Adenosine A3 respetor
  Adenosine A3 respetor (h) [% inhib]: 33 % inhib
PCP receptor
  PCP receptor (r) [% inhib]: -16 % inhib
[2]
  Mic CL r: 10/10/10 µL/m/mg prot
GSK-3A
  GSK-3A (h) [% inhib]: -11 % inhib
Estrogen receptor alpha
  Estrogen receptor alpha (h) [% inhib]: -6 % inhib
Single dose PK in rats; [5]
  AUC(0-inf): 260 µg·h/mL
  Cmax: 2980 ng/mL
  Tmax: 17 h
  half-life: 13 h
Single dose PK in rats; plasma, iv bolus, 2 mg/kg
  AUC(0-inf): 21 µg·h/mL
  half-life: 2.6 h
Single dose PK in rats; plasma, iv bolus, 2 mg/kg, read-out: CLp
  clearance: 1.6 mL/min/kg
Single dose PK in rats; plasma, iv bolus, 2 mg/kg, read-out: Vdss
  Vd: 0.3 L/kg
Single dose PK in rats; plasma, oral gavage, 10 mg/kg
  AUC(0-inf): 130 µg·h/mL
  Cmax: 17700 ng/mL
  Tmax: 0.75 h
  half-life: 4.6 h
Single dose PK in rats; food admix (FA), 20 mg/kg per day
  Oral F: 80%
Single dose PK in rats; oral gavage, 10 mg/kg
  Oral F: 80%
HT-solubility assay
  solubility: 28 µg/mL (≈ 58.9 µM)
MMP-3
  MMP-3 (h) [% inhib]: 3 % inhib
Prostaglandin F receptor
  Prostaglandin F receptor (h) [% inhib]: 26 % inhib
[3]
  Ca2^+ channel (diltiazem site) (r) [% inhib]: 9 % inhib
[4]
  Angiotensin II receptor 1 (h) [% inhib]: 14 % inhib
Histamine H3 receptor
  Histamine H3 receptor (h) [% inhib]: -10 % inhib
